Like-named read-outs stand apart in the source and are kept apart here.
Columns and labels:
HIV-1 integrase = HIV-1 integrase (Human immunodeficiency virus type 1 group M subtype B, UniProt P12497); assay: biochemical; assay type: biochemical
Experimental: In Vitro Integrase Assay.
Integrase reactions were carried out by adding drugs or an equivalent volume of 100% dimethyl sulfoxide (DMSO; used as the drug solvent) to a mixture of 20 nM DNA and 400 nM integrase in 50 mM morpholinepropanesulfonic acid (pH 7.2), 7.5 mM MgCl2, and 14 mM 2-mercaptoethanol. Reactions were performed at 37° C. for 2 h and quenched by the addition of an equal volume of loading buffer (formamide containing 1% sodium dodecyl sulfate, 0.25% bromophenol blue, and xylene cyanol). […] Dried gels were visualized using a Typhoon 8600 (GE Healthcare, Piscataway, N.J.). Densitometric analyses were performed using ImageQuant 5.1 software from GE Healthcare.

in vitro = assay type: cell-based, human; settings: human, 50% reduction in the level of ATP in HOS cells
Experimental: Cellular Cytotoxicity Assay.
On the day of the screen, cells were treated with compounds at the appropriate concentration range chosen and incubated at 37° C. for 48 hrs. Cytotoxicity was measured by monitoring ATP levels via a luciferase reporter assay. Cells were lysed in 50 μL cell lysis buffer (PerkinElmer, Waltham, Mass.) and shaken at 700 rpm at room temperature for 5 mins After the addition of 50 μL of ATPlite buffer (PerkinElmer) directly onto the lysed cells and shaking at 700 rpm at room temperature for 5 mins, ATP levels were monitored by measuring luciferase activity using a microplate reader. Activity was normalized to cytotoxicity in the absence of target compounds. KaleidaGraph (Synergy Software, Reading, Pa.) was used to perform regression analysis on the data. CC50 values were determined from the fit model.

[1] = test system: HIV-1 constructs containing wild-type IN; assay: microbe, parasite or virus in culture; assay type: cell-based; settings: for EC50: Human immunodeficiency virus 1
Source text: (§1) Single-Round HIV-1 Infectivity Assay.
(§2) Human embryonyl kidney cell culture cell line 293 was acquired from the American type Culture Collection (ATCC).
(§3) The virus-containing supernatants were then harvested, clarified by low-speed centrifugation, filtrated, and diluted for preparation in infection assays. […] Activity was normalized to infectivity in the absence of target compounds. KaleidaGraph (Synergy Software, Reading, Pa.) was used to perform regression analysis on the data. EC50 values were determined from the fit model.

[2] = test system: HIV-1 constructs containing mutant IN G140S-Q148H; assay: microbe, parasite or virus in culture; assay type: cell-based; settings: for EC50: Human immunodeficiency virus 1
Source text: as §1, §2, §3
(§4) pNLNgoMIVR^−ΔEnv.LUC has been described previously (Zhao et al. 2008). The integrase codon reading frame was removed from pNLNgoMIVR^−ΔEnv LUC (between KpnI and SalI sites) and placed between the KpnI and SalI sites of pBluescript II KS+. Using that construct as the wild-type template, we prepared the following HIV-1 Integrase-resistant mutants via the QuikChange II XL (Stratagene, La Jolla, Calif.) site-directed mutagenesis protocol: H51Y, T66I, E92Q, G118R, Y143R, Q148H, Q148K, N155H, R263K, G140S+Q148H, G140A+Q148K, E138K+Q148K, and H51Y+R263K. The following sense with cognate antisense (not shown) oligonucleotides (Integrated DNA Technologies, Coralville, Iowa) were used in the mutagenesis: H51Y, 5′-[…]-3; T66I, 5′-[…]-3′; E92Q, 5′-[…]-3′; G118R, 5′-[…]-3′; E138K, 5′-[…]-3; G140A, 5′-[…]-3; G140S, 5′-[…]-3′; Y143R, 5′-[…]-3′; Q148H, 5′-[…]-3′; Q148K, 5′-[…]-3; N155H, 5′-[…]-3′; R263K 5′-[…]-3′. The double mutation G140S+Q148H was constructed by using the previously generated Q148H mutant and the appropriate oligonucleotide for the 2nd mutation, G140S. The double mutation G140A+Q148K was made by using the Q148K mutant and the appropriate oligonucleotide for the 2nd mutation, G140A. The double mutation E138K+Q148K was made by using the Q148K mutant and the appropriate oligonucleotide for the 2nd mutation, E138K. The double mutation H51Y+R263K was constructed by using the previously generated H51Y mutant and the appropriate oligonucleotides for the 2nd mutation, R263K. The DNA sequence of each construct was verified independently by DNA sequence determination. […] These DNA sequences were additionally checked independently by DNA sequence determination.

[3] = test system: HIV-1 constructs containing mutant IN N155H; assay: microbe, parasite or virus in culture; assay type: cell-based; settings: for EC50: Human immunodeficiency virus 1
Source text: as §1, §2, §3, §4

[4] = test system: HIV-1 constructs containing mutant IN Y143R; assay: microbe, parasite or virus in culture; assay type: cell-based; settings: for EC50: Human immunodeficiency virus 1
Source text: as §1, §2, §3, §4

[5] = Table 4, 3′-processing, read-out: IC50 (3^+-Processing)
[6] = Table 4, strand transfer, read-out: IC50 (Strand Transfer)
[7] = Table 3, WT IN, read-out: EC50 (nM, WT)
[8] = Table 3, G140S-Q148H double mutant, read-out: EC50 (nM, IN Mutants) SH
[9] = Table 3, read-out: EC50 (nM, IN Mutants) N155H
[10] = Table 3, read-out: EC50 (nM, IN Mutants) Y143R
[11] = Table 7, 3′-processing, read-out: IC50 (μM) 3′-P
[12] = Table 7, strand transfer, read-out: IC50 (μM) ST
[13] = Table 8, WT IN, read-out: EC50 (nM, WT)
[14] = Table 8, read-out: EC50 (nM, IN mutants) N155H
[15] = Table 8, read-out: EC50 (nM, IN mutants) Y143R

Row | Compound | IC50 (HIV-1 integrase; [5]) | IC50 (HIV-1 integrase; [6]) | CC50 (in vitro; Table 3) | EC50 [1, 7] | Si (selectivity index) ([1]; Table 3, ratio of CC50 to EC50) | EC50 [2, 8] | EC50 [3, 9] | EC50 [4, 10] | IC50 (HIV-1 integrase; [11]) | IC50 (HIV-1 integrase; [12]) | CC50 (in vitro; Table 8) | EC50 [1, 13] | EC50 [3, 14] | EC50 [4, 15] | other results
1 | O=C(NCc1ccc(F)cc1F)c1c(NC2CCCCCC2)c2cccnc2n(O)c1=O [XZ376, 4-(cycloheptylamino)-N-(2,4-difluorobenzyl)-1-hydroxy-2-oxo-1,2-dihydro-1,8-naphthyridine-3-carboxamide] | 13.1 ± 1.1 µM | 0.46 ± 0.18 µM | 68700 ± 8700 nM | 12.2 ± 2.9 nM | 4,804 | 35 ± 11.7 nM | 13.7 ± 3.8 nM | 6.6 ± 1.7 nM |  |  |  |  |  |  | 
2 | COC(=O)[C@@H](C)Nc1c(C(=O)NCc2ccc(F)cc2F)c(=O)n(O)c2ncccc12 [XZ395, (R)-methyl 2-((3-((2,4-difluorobenzyl)carbamoyl)-1-hydroxy-2-oxo-1,2-dihydro-1,8-naphthyridin-4-yl)amino)propanoat] |  |  | > 250000 nM | 11.3 ± 4.7 nM |  | 89.3 ± 26.3 nM |  | 8.1 ± 1.7 nM |  |  |  |  |  |  | 
3 | O=C(NCc1ccc(F)cc1F)c1c(O)c2cc(CCCCCO)cnc2n(O)c1=O [XZ421, N-(2,4-Difluorobenzyl)-1,4-dihydroxy-6-(5-hydroxypentyl)-2-oxo-1,2-dihydro-1,8-naphthyridine-3-carboxamide] |  |  |  |  |  |  |  |  | 14.3 ± 1.1 µM | 0.0124 ± 0.0026 µM | > 250000 nM | 23.7 nM | 31.6 nM | 8.3 nM | EC50 ([2]; Table 8, read-out: EC50 (nM, IN mutants) G140S/Q148H): 28.5 nM
4 | Nc1c(C(=O)NCc2ccc(F)cc2F)c(=O)n(O)c2ncc(CCCC3CCCCC3)cc12 [XZ428, 4-Amino-6-(3-cyclohexylpropyl)-N-(2,4-difluorobenzyl)-1-hydroxy-2-oxo-1,2-dihydro-1,8-naphthyridine-3-carboxamide] |  |  |  |  |  |  |  |  | 289 ± 49 µM | 3.28 ± 0.468 µM | 27400 nM | 53.4 nM | 146 nM | 112 nM | 
5 | O=C(NCc1ccc(F)c(F)c1)c1c(O)c2cccnc2n(O)c1=O [XZ367, N-(3,4-difluorobenzyl)-1,4-dihydroxy-2-oxo-1,2-dihydro-1,8-naphthyridine-3-carboxamide] |  |  | 192000 ± 19000 nM | 20 ± 6.2 nM |  | 507 ± 125 nM | 189 ± 70.1 nM | 44.5 ± 12.2 nM |  |  |  |  |  |  | IC50 (HIV-1 integrase; Table 1, 3′-processing, read-out: IC50 Values 3′-Processing): 3.6 ± 0.6 µM; IC50 (HIV-1 integrase; Table 1, strand transfer, read-out: IC50 Values Strand transfer): 0.04 ± 0.01 µM; CC50 (in vitro; Table 2): 192000 nM; SI [1]: 9,585; Si (selectivity index) [1]: 9,585; EC50 ([1]; Table 2, cells infected with lentiviral vector harboring WT IN, read-out: EC50): 20 nM; Integrase Mutants SH (G140S-Q148H), fold-change in EC50 relative to WT [2]: 25 x; Integrase Mutants N155H, fold-change in EC50 relative to WT [3]: 9 x; Integrase Mutants Y143R, fold-change in EC50 relative to WT [4]: 2 x
6 | O=C(NCc1ccc(F)cc1F)c1c(N2CCOCC2)c2cccnc2n(O)c1=O [XZ373, N-(2,4-difluorobenzyl)-1-hydroxy-4-morpholino-2-oxo-1,2-dihydro-1,8-naphthyridine-3-carboxamide] | 77 ± 12 µM | 0.079 ± 0.013 µM | 8400 ± 3200 nM | 1200 ± 260 nM | 7 | 6920 ± 2 nM | 3730 ± 920 nM | 1800 ± 870 nM |  |  |  |  |  |  | 

Source: patent publication US9676771B2, “Compounds for inhibiting drug-resistant strains of HIV-1 integrase” (priority 2013, dated 2017)
